Data published in ChEMBL document CHEMBL1136175, “Synthesis and antimycobacterial activity of capuramycin analogues. Part 2: acylated derivatives of capuramycin-related compounds” (Bioorg Med Chem Lett, 2003).
Converted amounts (≈) assume the structure as drawn.

Key:
[1] = molecular target: T1, Phospho-N-acetylmuramoyl-pentapeptide-transferase (Escherichia coli K-12, UniProt P0A6W3); assay: Inhibitory concentration against translocase-I
T1 sequence (P0A6W3 whole entry): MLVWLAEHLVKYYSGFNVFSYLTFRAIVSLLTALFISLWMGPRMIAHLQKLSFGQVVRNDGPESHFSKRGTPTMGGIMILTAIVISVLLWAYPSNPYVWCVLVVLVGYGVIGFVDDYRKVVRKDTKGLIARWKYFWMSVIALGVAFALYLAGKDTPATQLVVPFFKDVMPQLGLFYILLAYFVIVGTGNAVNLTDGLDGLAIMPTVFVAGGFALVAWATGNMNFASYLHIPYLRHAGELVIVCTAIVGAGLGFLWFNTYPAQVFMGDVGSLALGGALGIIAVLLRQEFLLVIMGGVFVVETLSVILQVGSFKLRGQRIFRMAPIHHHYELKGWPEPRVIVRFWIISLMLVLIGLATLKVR

[2] = test system: Mycolicibacterium smegmatis; assay: Antimycobacterial activity was determined against Mycobacterium smegmatis SANK75075; type: functional
Mycobacterium avium = assay: Antimycobacterial activity against Mycobacterium avium NIHJ1605; type: functional
[3] = test system: Mycobacterium intracellulare; assay: Antimycobacterial activity against Mycobacterium intracellular ATCC 1954 E-3; type: functional
Mycobacterium kansasii = assay: Antimycobacterial activity against Mycobacterium kansasii ATCC 12478; type: functional
[4] = molecular target: T1, Phospho-N-acetylmuramoyl-pentapeptide-transferase; assay: Inhibitory concentration required against Translocase I

IC50 [1] | SMILES | MIC [2] | MIC (Mycobacterium avium) | MIC [3] | MIC (Mycobacterium kansasii) | IC50 [4]
254 nM | CCCCCCCCC(=O)O[C@@H]1[C@H](OC)[C@@H]([C@@H](O[C@H]2OC(C(=O)N[C@H]3CCCCNC3=O)=C[C@H](O)[C@@H]2O)C(N)=O)O[C@H]1n1ccc(=O)[nH]c1=O | 12.5 µg/mL (≈ 17.6 µM) |  |  |  | 
 | CCCCCCCCCCCCCCC(=O)O[C@@H]1[C@H](OC)[C@@H]([C@@H](O[C@H]2OC(C(=O)N[C@H]3CCC[C@@H](C)NC3=O)=C[C@H](O)[C@@H]2O)C(N)=O)O[C@H]1n1ccc(=O)[nH]c1=O | 6.25 µg/mL (≈ 7.74 µM) | 0.125 µg/mL (≈ 0.155 µM) | 0.25 µg/mL (≈ 0.309 µM) | 4 µg/mL (≈ 4.95 µM) | 2970 nM
 | CCCCCCCCCCCCCCCC(=O)O[C@@H]1[C@H](OC)[C@@H]([C@@H](O[C@H]2OC(C(=O)Nc3ccccc3)=C[C@H](O)[C@@H]2O)C(N)=O)O[C@H]1n1ccc(=O)[nH]c1=O | 12.5 µg/mL (≈ 16.2 µM) | 2 µg/mL (≈ 2.59 µM) | 16 µg/mL (≈ 20.7 µM) | 32 µg/mL (≈ 41.4 µM) | > 3230 nM
 | CCCCCCCCCCCC(=O)O[C@@H]1[C@H](OC)[C@@H]([C@@H](O[C@H]2OC(C(=O)N[C@H]3CCC[C@@H](C)NC3=O)=C[C@H](O)[C@@H]2O)C(N)=O)O[C@H]1n1ccc(=O)[nH]c1=O | 1.56 µg/mL (≈ 2.04 µM) | < 0.063 µg/mL | < 0.063 µg/mL | 0.5 µg/mL (≈ 0.653 µM) | 2870 nM
 | CCCCCCC(=O)O[C@@H]1[C@H](OC)[C@@H]([C@@H](O[C@H]2OC(C(=O)Nc3ccccc3)=C[C@H](O)[C@@H]2O)C(N)=O)O[C@H]1n1ccc(=O)[nH]c1=O | 25 µg/mL (≈ 38.7 µM) | 0.5 µg/mL (≈ 0.773 µM) | 1 µg/mL (≈ 1.55 µM) | 0.5 µg/mL (≈ 0.773 µM) | 371 nM
 | CCCCCCCCO[C@@H]1[C@H](OC)[C@@H]([C@@H](O[C@H]2OC(C(=O)N[C@H]3CCC[C@@H](C)NC3=O)=C[C@H](O)[C@@H]2O)C(N)=O)O[C@H]1n1ccc(=O)[nH]c1=O | 50 µg/mL (≈ 71.9 µM) | 16 µg/mL (≈ 23 µM) | 2 µg/mL (≈ 2.87 µM) | > 32 µg/mL | 216 nM
 | CCCCC(=O)O[C@@H]1[C@H](OC)[C@@H]([C@@H](O[C@H]2OC(C(=O)N[C@H]3CCC[C@@H](C)NC3=O)=C[C@H](O)[C@@H]2O)C(N)=O)O[C@H]1n1ccc(=O)[nH]c1=O | 100 µg/mL (≈ 150 µM) | 32 µg/mL (≈ 47.9 µM) | 2 µg/mL (≈ 3 µM) | 16 µg/mL (≈ 24 µM) | 35.9 nM
 | CCCCCCCCCCCC(=O)O[C@@H]1[C@H](OC)[C@@H]([C@@H](O[C@H]2OC(C(=O)Nc3ccccc3)=C[C@H](O)[C@@H]2O)C(N)=O)O[C@H]1n1ccc(=O)[nH]c1=O | 6.25 µg/mL (≈ 8.72 µM) | 1 µg/mL (≈ 1.4 µM) | 4 µg/mL (≈ 5.58 µM) | 8 µg/mL (≈ 11.2 µM) | > 3490 nM
 | CCCCCCCCCC(=O)O[C@@H]1[C@H](OC)[C@@H]([C@@H](O[C@H]2OC(C(=O)Nc3ccccc3)=C[C@H](O)[C@@H]2O)C(N)=O)O[C@H]1n1ccc(=O)[nH]c1=O | 6.25 µg/mL (≈ 9.07 µM) | 0.5 µg/mL (≈ 0.726 µM) | 1 µg/mL (≈ 1.45 µM) | 2 µg/mL (≈ 2.9 µM) | 2760 nM
 | CO[C@H]1[C@@H](O)[C@H](n2ccc(=O)[nH]c2=O)O[C@@H]1[C@@H](O[C@H]1OC(C(=O)Nc2ccccc2)=C[C@H](O)[C@@H]1O)C(N)=O | 6.25 µg/mL (≈ 11.7 µM) | 16 µg/mL (≈ 29.9 µM) | 4 µg/mL (≈ 7.48 µM) | 8 µg/mL (≈ 15 µM) | 12.2 nM
 | CCCCCCCCCCCCCCCCCC(=O)O[C@@H]1[C@H](OC)[C@@H]([C@@H](O[C@H]2OC(C(=O)N[C@H]3CCC[C@@H](C)NC3=O)=C[C@H](O)[C@@H]2O)C(N)=O)O[C@H]1n1ccc(=O)[nH]c1=O | > 100 µg/mL |  |  |  | 9410 nM
 | CCCCCCO[C@@H]1[C@H](OC)[C@@H]([C@@H](O[C@H]2OC(C(=O)N[C@H]3CCC[C@@H](C)NC3=O)=C[C@H](O)[C@@H]2O)C(N)=O)O[C@H]1n1ccc(=O)[nH]c1=O | 50 µg/mL (≈ 74.9 µM) | 32 µg/mL (≈ 47.9 µM) | 4 µg/mL (≈ 5.99 µM) | 32 µg/mL (≈ 47.9 µM) | 59.9 nM
 | CCCCCC(=O)O[C@@H]1[C@H](OC)[C@@H]([C@@H](O[C@H]2OC(C(=O)N[C@H]3CCC[C@@H](C)NC3=O)=C[C@H](O)[C@@H]2O)C(N)=O)O[C@H]1n1ccc(=O)[nH]c1=O | 50 µg/mL (≈ 73.3 µM) | 16 µg/mL (≈ 23.5 µM) | 2 µg/mL (≈ 2.93 µM) | 2 µg/mL (≈ 2.93 µM) | 63.1 nM
 | CCCCCCCCOC(=O)O[C@@H]1[C@H](OC)[C@@H]([C@@H](O[C@H]2OC(C(=O)N[C@H]3CCC[C@@H](C)NC3=O)=C[C@H](O)[C@@H]2O)C(N)=O)O[C@H]1n1ccc(=O)[nH]c1=O | 25 µg/mL (≈ 33.8 µM) | 0.25 µg/mL (≈ 0.338 µM) | 0.5 µg/mL (≈ 0.676 µM) | 2 µg/mL (≈ 2.7 µM) | 676 nM
